ChEMBL document CHEMBL1921670, “Discovery and optimization of indole and 7-azaindoles as Rho kinase (ROCK) inhibitors (part-II)” (Bioorg Med Chem Lett, 2011)

What was measured:
[1] = biological target: Rho-associated protein kinase 1 (Homo sapiens, UniProt Q13464); experiment: Inhibition of ROCK1
[2] = Inhibition of PKA
[3] = biological target: Rho-associated protein kinase 2 (Homo sapiens, UniProt O75116); experiment: Inhibition of ROCK2
CYP3A4 = CYP3A4 (Homo sapiens, UniProt P08684); experiment: Inhibition of CYP3A4 at 10 uM; assay type: ADME
Chain of CYP3A4 (P08684 whole entry): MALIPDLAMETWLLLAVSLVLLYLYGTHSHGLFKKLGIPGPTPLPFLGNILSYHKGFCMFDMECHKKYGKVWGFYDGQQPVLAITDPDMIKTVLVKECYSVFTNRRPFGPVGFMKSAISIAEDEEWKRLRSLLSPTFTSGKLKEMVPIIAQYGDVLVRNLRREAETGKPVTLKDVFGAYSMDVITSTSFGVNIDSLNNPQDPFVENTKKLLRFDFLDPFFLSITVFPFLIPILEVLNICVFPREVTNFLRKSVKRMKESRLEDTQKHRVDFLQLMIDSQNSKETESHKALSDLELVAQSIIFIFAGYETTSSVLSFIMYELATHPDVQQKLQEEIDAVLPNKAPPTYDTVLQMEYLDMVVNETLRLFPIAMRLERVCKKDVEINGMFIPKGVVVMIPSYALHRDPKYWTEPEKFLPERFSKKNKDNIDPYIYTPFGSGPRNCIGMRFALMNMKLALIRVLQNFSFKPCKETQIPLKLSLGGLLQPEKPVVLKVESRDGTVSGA

CYP2C9 = CYP2C9 (Homo sapiens, UniProt P11712); experiment: Inhibition of CYP2C9 at 10 uM; assay type: ADME
Chain of CYP2C9 (P11712 whole entry): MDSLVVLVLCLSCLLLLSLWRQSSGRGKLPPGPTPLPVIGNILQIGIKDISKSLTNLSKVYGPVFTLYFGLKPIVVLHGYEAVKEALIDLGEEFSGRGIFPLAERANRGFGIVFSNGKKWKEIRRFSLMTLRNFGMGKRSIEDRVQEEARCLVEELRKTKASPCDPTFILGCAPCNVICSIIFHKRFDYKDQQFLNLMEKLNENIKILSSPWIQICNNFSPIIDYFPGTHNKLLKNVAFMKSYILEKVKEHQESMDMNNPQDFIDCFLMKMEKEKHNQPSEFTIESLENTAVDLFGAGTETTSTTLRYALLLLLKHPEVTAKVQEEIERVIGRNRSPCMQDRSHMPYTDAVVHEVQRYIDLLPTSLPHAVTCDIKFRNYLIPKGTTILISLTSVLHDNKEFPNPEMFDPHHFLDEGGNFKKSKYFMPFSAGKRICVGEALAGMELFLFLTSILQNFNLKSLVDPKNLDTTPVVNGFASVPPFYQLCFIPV

CYP1A2 = biological target: T1, CYP1A2 (Homo sapiens, UniProt P05177); experiment: Inhibition of CYP1A2 at 10 uM; assay type: ADME
T1 sequence (P05177 whole entry): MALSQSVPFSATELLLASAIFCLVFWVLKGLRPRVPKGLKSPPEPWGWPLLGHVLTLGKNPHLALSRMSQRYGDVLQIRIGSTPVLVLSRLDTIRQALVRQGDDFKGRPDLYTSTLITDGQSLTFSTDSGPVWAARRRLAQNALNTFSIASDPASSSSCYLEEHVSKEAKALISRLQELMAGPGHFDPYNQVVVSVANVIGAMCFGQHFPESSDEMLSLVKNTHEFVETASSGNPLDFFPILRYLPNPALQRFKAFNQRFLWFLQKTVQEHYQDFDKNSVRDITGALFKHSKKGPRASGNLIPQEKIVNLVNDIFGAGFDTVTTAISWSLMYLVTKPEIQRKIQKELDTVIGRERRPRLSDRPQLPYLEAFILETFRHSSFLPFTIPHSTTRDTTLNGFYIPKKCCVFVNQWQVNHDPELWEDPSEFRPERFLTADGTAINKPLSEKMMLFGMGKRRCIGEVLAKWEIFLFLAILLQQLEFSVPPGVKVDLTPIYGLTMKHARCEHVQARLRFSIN

CYP2D6 = CYP2D6 (Homo sapiens, UniProt P10635); experiment: Inhibition of CYP2D6 at 10 uM; assay type: ADME
Chain of CYP2D6 (P10635 whole entry): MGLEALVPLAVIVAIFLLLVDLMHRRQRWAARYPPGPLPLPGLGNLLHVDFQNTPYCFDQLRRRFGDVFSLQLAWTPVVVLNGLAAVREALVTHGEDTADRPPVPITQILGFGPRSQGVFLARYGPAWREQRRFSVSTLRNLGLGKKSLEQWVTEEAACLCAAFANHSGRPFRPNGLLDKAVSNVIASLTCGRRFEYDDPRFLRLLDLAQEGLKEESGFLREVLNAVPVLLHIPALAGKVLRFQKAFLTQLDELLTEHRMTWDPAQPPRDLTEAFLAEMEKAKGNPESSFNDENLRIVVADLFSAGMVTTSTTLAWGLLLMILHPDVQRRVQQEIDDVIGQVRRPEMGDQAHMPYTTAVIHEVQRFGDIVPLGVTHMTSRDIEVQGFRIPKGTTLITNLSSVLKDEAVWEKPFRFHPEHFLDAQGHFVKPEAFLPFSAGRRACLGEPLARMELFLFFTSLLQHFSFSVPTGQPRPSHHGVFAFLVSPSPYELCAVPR

[4] = Half life in human liver microsomes; assay type: ADME, Microsome
[5] = Inhibition of myosin light chain bisphosphorylation by cell-based assay
[6] = Volume of distribution at steady state in rat at 1 mg/kg, iv or 2 mg/kg, po; assay type: ADME, organism-based; details: in vivo, read-out: Vdss
[7] = Clearance in rat at 1 mg/kg, iv or 2 mg/kg, po; assay type: ADME, organism-based; details: in vivo
[8] = Oral bioavailability in rat at 2 mg/kg; assay type: ADME, organism-based; details: in vivo
[9] = Half life in rat at 1 mg/kg, iv or 2 mg/kg, po; assay type: ADME, organism-based; details: in vivo
[10] = AUC in rat at 1 mg/kg, iv; assay type: ADME, organism-based; set-up: dose 1 mg/kg, route intravenous; details: plasma

Chain of Rho-associated protein kinase 1 (Q13464 whole entry): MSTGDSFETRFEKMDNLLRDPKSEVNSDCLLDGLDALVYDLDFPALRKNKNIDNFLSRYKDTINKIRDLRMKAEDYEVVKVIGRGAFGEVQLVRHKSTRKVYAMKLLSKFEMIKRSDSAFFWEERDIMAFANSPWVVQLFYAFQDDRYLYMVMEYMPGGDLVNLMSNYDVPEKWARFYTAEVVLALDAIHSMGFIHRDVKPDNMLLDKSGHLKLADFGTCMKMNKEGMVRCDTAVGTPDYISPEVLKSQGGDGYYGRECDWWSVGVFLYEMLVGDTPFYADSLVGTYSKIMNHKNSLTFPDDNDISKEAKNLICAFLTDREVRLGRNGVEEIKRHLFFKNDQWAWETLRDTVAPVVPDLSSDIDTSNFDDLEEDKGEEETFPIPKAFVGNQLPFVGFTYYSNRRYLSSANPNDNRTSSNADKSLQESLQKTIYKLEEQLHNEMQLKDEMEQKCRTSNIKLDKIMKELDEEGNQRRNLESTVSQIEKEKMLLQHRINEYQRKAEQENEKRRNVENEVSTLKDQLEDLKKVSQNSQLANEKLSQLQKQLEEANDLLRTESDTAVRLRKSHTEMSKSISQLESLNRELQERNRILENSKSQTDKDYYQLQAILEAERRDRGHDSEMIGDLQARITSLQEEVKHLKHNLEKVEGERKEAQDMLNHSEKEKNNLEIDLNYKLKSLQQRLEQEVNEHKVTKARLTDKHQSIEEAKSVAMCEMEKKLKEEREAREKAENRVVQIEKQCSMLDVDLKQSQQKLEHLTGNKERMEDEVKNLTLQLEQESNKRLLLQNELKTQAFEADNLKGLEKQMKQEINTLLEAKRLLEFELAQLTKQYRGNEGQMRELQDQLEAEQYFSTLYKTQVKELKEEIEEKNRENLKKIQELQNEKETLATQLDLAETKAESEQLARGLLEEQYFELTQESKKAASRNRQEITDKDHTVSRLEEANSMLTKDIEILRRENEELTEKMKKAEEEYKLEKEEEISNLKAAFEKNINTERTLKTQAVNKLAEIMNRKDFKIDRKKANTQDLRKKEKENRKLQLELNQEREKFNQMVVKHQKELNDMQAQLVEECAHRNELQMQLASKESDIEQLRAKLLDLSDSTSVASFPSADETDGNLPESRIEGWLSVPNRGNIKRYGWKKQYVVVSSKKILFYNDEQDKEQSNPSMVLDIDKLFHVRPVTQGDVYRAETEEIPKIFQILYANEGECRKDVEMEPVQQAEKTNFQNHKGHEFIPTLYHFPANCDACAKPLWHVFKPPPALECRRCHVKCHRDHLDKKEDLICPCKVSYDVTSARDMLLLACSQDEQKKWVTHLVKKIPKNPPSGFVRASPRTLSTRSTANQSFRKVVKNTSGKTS
Chain of Rho-associated protein kinase 2 (O75116 whole entry): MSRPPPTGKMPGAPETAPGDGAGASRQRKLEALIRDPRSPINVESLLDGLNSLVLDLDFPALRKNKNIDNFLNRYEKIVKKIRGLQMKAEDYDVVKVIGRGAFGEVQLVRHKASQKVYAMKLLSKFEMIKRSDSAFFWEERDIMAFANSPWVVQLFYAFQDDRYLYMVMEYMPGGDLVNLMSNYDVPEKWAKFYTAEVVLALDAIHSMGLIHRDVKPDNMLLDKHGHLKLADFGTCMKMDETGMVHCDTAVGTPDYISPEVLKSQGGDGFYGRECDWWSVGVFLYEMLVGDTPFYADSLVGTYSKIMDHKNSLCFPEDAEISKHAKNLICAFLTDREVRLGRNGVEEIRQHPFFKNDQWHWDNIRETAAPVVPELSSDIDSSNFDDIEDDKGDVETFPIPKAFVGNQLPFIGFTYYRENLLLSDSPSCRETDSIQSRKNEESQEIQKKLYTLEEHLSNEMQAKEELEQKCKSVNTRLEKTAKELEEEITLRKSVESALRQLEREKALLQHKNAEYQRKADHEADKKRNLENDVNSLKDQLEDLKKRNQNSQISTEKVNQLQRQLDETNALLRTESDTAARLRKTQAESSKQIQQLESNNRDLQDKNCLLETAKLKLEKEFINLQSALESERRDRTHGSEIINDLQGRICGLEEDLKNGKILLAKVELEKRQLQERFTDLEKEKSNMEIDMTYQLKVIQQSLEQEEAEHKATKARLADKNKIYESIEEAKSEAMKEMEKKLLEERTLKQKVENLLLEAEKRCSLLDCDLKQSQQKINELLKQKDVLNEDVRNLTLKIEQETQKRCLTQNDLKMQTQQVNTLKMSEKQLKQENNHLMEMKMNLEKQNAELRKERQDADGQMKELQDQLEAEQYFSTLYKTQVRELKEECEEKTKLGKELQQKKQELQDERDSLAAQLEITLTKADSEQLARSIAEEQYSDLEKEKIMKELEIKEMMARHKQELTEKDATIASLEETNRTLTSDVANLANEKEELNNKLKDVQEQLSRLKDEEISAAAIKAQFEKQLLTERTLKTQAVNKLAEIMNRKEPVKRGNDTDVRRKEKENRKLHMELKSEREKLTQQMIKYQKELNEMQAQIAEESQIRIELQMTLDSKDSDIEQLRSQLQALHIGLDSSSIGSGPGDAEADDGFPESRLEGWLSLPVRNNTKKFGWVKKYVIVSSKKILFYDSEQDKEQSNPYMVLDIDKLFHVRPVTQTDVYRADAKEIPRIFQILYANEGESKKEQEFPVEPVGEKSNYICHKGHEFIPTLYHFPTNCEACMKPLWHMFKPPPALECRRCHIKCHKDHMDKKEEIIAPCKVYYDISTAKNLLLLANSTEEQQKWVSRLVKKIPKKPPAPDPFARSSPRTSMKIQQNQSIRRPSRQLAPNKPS

| Compound | IC50 [1] [nM] | IC50 [2] [nM] | IC50 [3] [nM] | inhibition at 10 µM (CYP3A4) [%] | inhibition at 10 µM (CYP2C9) [%] | inhibition at 10 µM (CYP1A2) [%] | inhibition at 10 µM (CYP2D6) [%] | half-life [4] [min] | IC50 [5] [nM] | Vd [6] [L/kg] | clearance [7] [mL/min/kg] | bioavailability [8] [%] | half-life [9] [min] | AUC [10] [µM·h] |
| --- | --- | --- | --- | --- | --- | --- | --- | --- | --- | --- | --- | --- | --- | --- |
| CCN(Cc1cccc(OC)c1)C(=O)c1c[nH]c2nc(-c3cn[nH]c3)ccc12 | 76 | 5000 | 19 |  |  |  |  |  |  |  |  |  |  |  |
| COc1cccc(CNC(=O)c2[nH]c3cc(-c4cn[nH]c4)ccc3c2CN(C)C)c1 | 34 | 1500 | 9 | 19 | 27 | 18 | 48 | 68 |  |  |  |  |  |  |
| COc1cccc(CNC(=O)c2c[nH]c3nc(-c4cn[nH]c4)ccc23)c1 |  | 8000 |  |  |  |  |  |  |  |  |  |  |  |  |
| COc1cccc(CNC(=O)c2[nH]c3cc(-c4cn[nH]c4)ccc3c2CN2CCCNCC2)c1 | 8 | 385 | < 1 | 51 | 53 | 41 | 81 | 50 |  |  |  |  |  |  |
| COc1cccc(CNC(=O)c2cn(-c3ccccc3)c3cc(-c4cn[nH]c4)ccc23)c1 | 21 |  | 5 | 93 | 96 | 36 | 76 | 10 |  |  |  |  |  |  |
| COc1cccc(CN(C)C(=O)c2cc3ccc(-c4cn[nH]c4)cc3[nH]2)c1 | 37 | 2800 | 3 | 2 | 27 | -7 | 9 | 46 | 70 |  |  |  |  |  |
| COc1cccc(CNC(=O)c2[nH]c3cc(-c4cn[nH]c4)ccc3c2CN2CCOCC2)c1 | 40 | 18000 | 3 | 86 | 86 | 46 | 70 | 8 | 130 | 2 | 32 | 0 | 84 | 1.2 |
| COc1cccc(CN(C)C(=O)c2cn(CCN(C)C)c3cc(-c4cn[nH]c4)ccc23)c1 | 110 | > 20000 | 9 |  |  |  |  |  |  |  |  |  |  |  |
| COc1cccc(CN(C)C(=O)c2c[nH]c3cc(-c4cn[nH]c4)ccc23)c1 | 19 | 4300 | 2 | 38 | 94 | 70 | 50 | 13 |  |  |  |  |  |  |
| COc1cccc(CNC(=O)c2cc3ccc(-c4cn[nH]c4)cc3n2CCN(C)C)c1 | 710 | > 20000 | 310 |  |  |  |  |  |  |  |  |  |  |  |
| COc1cccc(CNC(=O)c2[nH]c3nc(-c4cn[nH]c4)ccc3c2CN2CCOCC2)c1 | 91 | 6100 | 16 | 46 | 9 | 7 | 28 | 4 |  |  |  |  |  |  |
| COc1cccc(CNC(=O)c2[nH]c3cc(-c4cn[nH]c4)ccc3c2CN2CCN(C)CC2)c1 | 6 | 1300 | < 1 | 75 | 75 | 62 | 86 | 1 | 40 |  |  |  |  |  |
| COc1cccc(CN(CCN(C)C)C(=O)c2cn(C)c3cc(-c4cn[nH]c4)ccc23)c1 | 9 | 2200 | 1 | 36 | 62 | 3 | 52 | 8 | 34 |  |  |  |  |  |
| COc1cccc(CNC(=O)c2cn(CCCO)c3cc(-c4cn[nH]c4)ccc23)c1 | 3 | 900 | 1 | 63 | 87 | 71 | 32 | 21 |  |  |  |  |  |  |
| COc1cccc(CNC(=O)c2cc3ccc(-c4cn[nH]c4)nc3n2Cc2cccc(OC)c2)c1 | > 20000 |  | 4400 |  |  |  |  |  |  |  |  |  |  |  |
| COc1cccc(CNC(=O)c2cn(C)c3cc(-c4cn[nH]c4)ccc23)c1 | < 1 | 87 | < 1 | 87 | 93 | 23 | 53 | 9 | 4 |  |  |  |  |  |
| COc1cccc(CNC(=O)c2[nH]c3nc(-c4cn[nH]c4)ccc3c2CN2CCN(C)CC2)c1 | 39 | 911 | 8 | 34 | -26 | -15 | 60 | 1 |  |  |  |  |  |  |
